From US20080200475A1 (Pfizer Inc., priority 2005, published 2008) come the findings set out here.

The assay deals with T1, Human P2Y12 (Homo sapiens, UniProt Q9H244).
T1 construct: expressed in transfected cells; host or cells: HEK cells (membrane preparation)
Put plainly: [^33P]-2MeS-ADP Binding to Recombinant Human P2Y12 Membranes (Assay 3). The note with it: for IC50 / Ki: membranes of HEK cells transfected with P2Y12, competition with ^33P 2MeS-ADP, multiple lines = multiple runs. The method, then: 3. Human P2Y12 Recombinant Cell Membrane Binding Assay with ^33P 2MeS-ADP.
The ability of a test compound to bind to the P2Y12 receptor was evaluated in a recombinant cell membrane binding assay. In this competitive binding assay, the test compound competed against a radiolabelled agonist for binding to the P2Y12 receptor, expressed on the cell membrane. Inhibition of binding of the labeled material was measured and correlated to the amount and potency of the test compound. Data from this assay are presented in Table F. This binding assay is a modification of the procedure in Takasaki, J. et. al, Mol. Pharmacol., 2001, Vol. 60, pg. 432.
HEK cells were transfected with the pDONR201P2Y12 vector and cultured in MEM with GlutaMAX I, Earle's salts, 25 mM HEPES (Gibco #42360-032) containing 10% dialyzed FBS (Gibco #26400-044), 100 μM nonessential amino acids (Gibco #11140-050), 1 mM sodium pyruvate (Gibco #11360-070), 0.05% geneticin (Gibco #10131-027), 3 μg/mL blasticidin (Fluka brand from Sigma #15205), and 0.5 μg/mL puromycin (Sigma #P-8833).
Confluent cells were washed once with cold DPBS (Gibco #14190-136). Fresh DPBS was added and the cells were scraped and centrifuged at 500×g for 5 minutes at 4° C. The cell pellets were resuspended in TEE buffer (25 mM Tris, 5 mM EDTA, 5 mM EGTA) containing 1 protease inhibitor cocktail tablet (Roche #1 873 580) per 50 mL (called TEE+Complete) and can be flash frozen at this point.
In one embodiment, frozen cell pellets were used to prepare the membranes. In that embodiment, the frozen cell pellets were thawed on ice. In another embodiment, cell pellets may be used without flash freezing before moving on to the next step.
Cell pellets were resuspended in TEE buffer+Complete and homogenized in a glass dounce for 12 strokes. The cell suspension was centrifuged at 500×g for 5 minutes at 4° C. The supernatant was saved and centrifuged at 20,000×g for 20 minutes at 4° C. This supernatant was discarded and the cell pellet resuspended in TEE buffer+Complete and homogenized in a glass dounce for 12 strokes. This suspension was centrifuged at 20,000×g for 20 minutes at 4° C. and the supernatant discarded. The pellet was resuspended in assay buffer (50 mM Tris, 100 mM NaCl, 1 mM EDTA) containing one protease inhibitor cocktail tablet per 50 mL, and can be flash frozen as 1 mL aliquots at this point.
[…] A 1 mM DMSO intermediate stock was made in a dilution plate and from this the seven dilutions were made to 5× the final concentration in assay buffer containing 0.02% BSA.
To a polypropylene assay plate (Costar #3365) the following were added: a) 30 μL of assay buffer containing one protease inhibitor cocktail tablet per 50 mL; b) 30 μL of 1 nM ^33P 2MeS-ADP made in assay buffer containing 0.02% BSA and 12.5 mg/mL ascorbic acid; 30 μL of cold 1.5 μM 2MeS-ADP for the positive control wells, or assay buffer containing 0.02% BSA and 12.5 mg/mL ascorbic acid for the negative control wells, or 5× drug dilution; and 60 μL of 1 ug/well membranes.
The plates were incubated at room temperature for 1 hour. The reaction was stopped using a cell harvester to transfer the reaction mixture onto GF/B UniFilter plates (Perkin Elmer #6005177), and washed three times with wash buffer (50 mM Tris), filtering between each wash. The filter plates were dried for approximately 20 minutes in an oven at 50° C. Back seals were adhered to the filter plates and 25 uL of Microscint 20 scintillation fluid (Perkin Elmer #6013621) were added. The filter plates were sealed, shaken for 30 minutes, and counted on a Top Count. Data were analyzed using a four-parameter curve fit with a fixed minimum and maximum experimentally defined as the average positive and negative controls on each plate, and with a hill slope equal to one. […]

Setting [1] is: highest concentration tested 10 μM.

Values joined by “and” are separate entries in the source; they are usually repeats but may differ in a detail not shown here. Equal entries are not always repeated.

T1 sequence (Q9H244 whole entry): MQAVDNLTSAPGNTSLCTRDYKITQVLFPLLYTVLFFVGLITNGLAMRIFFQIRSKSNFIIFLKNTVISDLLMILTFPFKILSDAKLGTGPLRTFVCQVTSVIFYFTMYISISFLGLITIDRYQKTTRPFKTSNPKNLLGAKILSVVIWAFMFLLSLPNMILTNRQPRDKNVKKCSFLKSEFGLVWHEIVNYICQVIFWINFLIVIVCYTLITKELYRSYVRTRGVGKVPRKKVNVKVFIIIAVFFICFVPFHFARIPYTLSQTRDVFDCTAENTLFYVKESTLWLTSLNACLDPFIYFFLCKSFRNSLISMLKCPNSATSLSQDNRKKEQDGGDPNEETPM

In general, inhibition refers to how much of the control response was suppressed. The term IC50 denotes the concentration at which inhibition is half-maximal. For orientation: Ki means the dissociation constant of the complex between target and ligand, obtained from inhibition or displacement. As to `CCc1cc2c(N3CCN(C(=O)CC(F)(F)F)CC3)nc(NC(=O)NCCC(=O)O)nc2s1` [Example 49, N-[({6-Ethyl-4-[4-(3,3,3-trifluoropropanoyl)piperazin-1-yl]thieno[2,3-d]pyrimidin-2-yl}amino)carbonyl]-beta-alanine], the IC50 was 0.449 µM and 0.308 µM and 0.254 µM; the Ki is 0.234 µM and 0.168 µM and 0.14 µM. Under setting [1], the “% Inhibition, [^33P]-2MeS-ADP Binding to Recombinant Human P2Y12 Membranes (Assay 3)” value was 94.4% and 92%; the inhibition at 10 µM is 88.9%.

For the molecule `CCc1cc2c(N3CCN(C(=O)c4ccc(-c5ccccc5)cc4)CC3)nc(NC(=O)[C@H](COC(C)(C)C)NC(=O)OCc3ccccc3)nc2s1` [Example 35, Benzyl (1-{4-[4-(biphenyl-4-carbonyl)piperazin-1-yl]-6-ethylthieno[2,3-d]pyrimidin-2-ylcarbamoyl)-2-tert-butoxyethyl)carbamate], the IC50 came out at 2.7 µM and the Ki turned out to be 1.31 µM. Also, the inhibition at 10 µM under setting [1] worked out at 53.9%.

Consider `CCc1cc2c(N3CCN(C(=O)c4ccc(-c5ccccc5)cc4)CC3)nc(NC(=O)NCC(=O)O)nc2s1` [Example 18, N-[({4-[4-(1,1′-Biphenyl-4-ylcarbonyl)piperazin-1-yl]-6-ethylthieno[2,3-d]pyrimidin-2-yl}amino)carbonyl]glycine], for which the IC50 turned out to be 0.0043 µM and the Ki is 0.002 µM. Besides, under setting [1], the inhibition at 10 µM was found to be 95.4%.

Take `CCc1cc2c(N3CCN(C(=O)c4ccc(-c5ccccc5)cc4)CC3)nc(NC(=O)CN)nc2s1` [Example 41, 2-Amino-N-{4-[4-(biphenyl-4-carbonyl)piperazin-1-yl]-6-ethylthieno[2,3-d]pyrimidin-2-yl}acetamide]: the IC50 is 0.156 µM and the Ki turned out to be 0.085 µM. The inhibition at 10 µM under setting [1] stood at 85%.

For `C=C(C)C(=O)OCCNC(=O)Nc1nc(N2CCN(C(=O)c3ccc(-c4ccccc4)cc3)CC2)c2cc(CC)sc2n1` [Example 16, 2-{[({4-[4-(1,1′-Biphenyl-4-ylcarbonyl)piperazin-1-yl]-6-ethylthieno[2,3-d]pyrimidin-2-yl}amino)carbonyl]amino}ethyl 2-methylacrylate], the IC50 stood at 0.244 µM and the Ki was 0.14 µM. Further, the inhibition at 10 µM under setting [1] was determined as 80.8%.

For the molecule `CCc1cc2c(N3CCN(C(=O)c4ccc(-c5ccccc5)cc4)CC3)nc(NC(=O)CCNC(=O)OCc3ccccc3)nc2s1` [Example 28, Benzyl(2-{4-[4-(biphenyl-4-carbonyl)piperazin-1-yl]-6-ethylthieno[2,3-d]pyrimidin-2-ylcarbamoyl}ethyl)carbamate], the IC50 is 0.0381 µM and the Ki came to 0.021 µM. Further, the inhibition at 10 µM under setting [1] turned out to be 92.7%.

Regarding `CCc1cc2c(N3CCN(C(=O)c4ccc(-c5ccccc5)cc4)CC3)nc(NC(=O)COC)nc2s1` [Example 23, N-{4-[4-(Biphenyl-4-carbonyl)piperazin-1-yl]-6-ethylthieno[2,3-d]pyrimidin-2-yl}-2-methoxyacetamide], the IC50 was 0.0624 µM and the Ki was 0.036 µM. Further, under setting [1], the inhibition at 10 µM was 93.2%.

For the molecule `CCc1cc2c(N3CCN(C(=O)c4ccc(-c5ccccc5)cc4)CC3)nc(NC(=O)[C@H]3CCCN3)nc2s1` [Example 40, (R)-Pyrrolidine-2-carboxylic acid{4-[4-(biphenyl-4-carbonyl)piperazin-1-yl]-6-ethylthieno[2,3-d]pyrimidin-2-yl}amide], the 50% inhibitory concentration (IC50) was 0.403 µM and the Ki was determined as 0.227 µM. Besides, the inhibition at 10 µM under setting [1] came out at 75.6%.

Take `CCc1cc2c(N3CCN(C(=O)c4ccc(-c5ccccc5)cc4)CC3)nc(NC(=O)c3cccnc3)nc2s1` [Example 29, N-{4-[4-(Biphenyl-4-carbonyl)piperazin-1-yl]-6-ethylthieno[2,3-d]pyrimidin-2-yl}nicotinamide]: the IC50 was found to be 0.078 µM and the Ki was 0.043 µM. Further, the inhibition at 10 µM under setting [1] amounted to 89%.

Consider `CCc1cc2c(N3CCN(C(=O)c4ccc(-c5ccccc5)cc4)CC3)nc(NC(=O)NCCC(=O)O)nc2s1` [Example 19, N-[({4-[4-(1,1′-Biphenyl-4-ylcarbonyl)piperazin-1-yl]-6-ethylthieno[2,3-d]pyrimidin-2-yl}amino)carbonyl]-beta-alanine], for which the IC50 was determined as 0.006 µM and the Ki is 0.003 µM. Under setting [1], the inhibition at 10 µM is 88%.

`CCc1cc2c(N3CCN(C(=O)c4ccc(-c5ccccc5)cc4)CC3)nc(NC(=O)[C@@H]3CCCN3)nc2s1` [Example 39, (S)-Pyrrolidine-2-carboxylic Acid{4-[4-(Biphenyl-4-carbonyl)piperazin-1-yl]-6-ethylthieno[2,3-d]pyrimidin-2-yl}amide]: the IC50 worked out at 0.179 µM and the Ki came to 0.087 µM. The inhibition at 10 µM under setting [1] was 81%.

`CCc1cc2c(N3CCN(C(=O)c4ccc(-c5ccccc5)cc4)CC3)nc(NC(=O)CCC(=O)O)nc2s1` [Example 38, N-{4-[4-(Biphenyl-4-carbonyl)piperazin-1-yl]-6-ethylthieno[2,3-d]pyrimidin-2-yl}succinamic acid]: the IC50 came out at 0.013 µM and the Ki was 0.008 µM. Further, the inhibition at 1 µM (highest concentration tested 1 μM) stood at 88%.

Turning to `CCc1cc2c(N3CCN(C(=O)c4ccc(-c5ccccc5)cc4)CC3)nc(NC(=O)COCc3ccccc3)nc2s1` [Example 27, 2-Benzyloxy-N-{4-[4-(biphenyl-4-carbonyl)piperazin-1-yl]-6-ethylthieno[2,3-d]pyrimidin-2-yl}acetamide], the IC50 came to 0.204 µM and the Ki stood at 0.119 µM. Further, the inhibition at 10 µM under setting [1] was determined as 84%.

Turning to `CCc1cc2c(N3CCN(C(=O)c4ccc(-c5ccccc5)cc4)CC3)nc(NC(=O)CCO)nc2s1` [Example 36, N-{4-[4-(Biphenyl-4-carbonyl)piperazin-1-yl]-6-ethylthieno[2,3-d]pyrimidin-2-yl}-3-hydroxypropionamide], the IC50 stood at 0.067 µM and the Ki came out at 0.037 µM. Besides, under setting [1], the inhibition at 10 µM was 94%.
